Data reported in patent US20070021405A1, “ARYL- AND HETEROARYLPIPERIDINECARBOXYLATE-DERIVATIVES METHODS FOR THEIR PREPARATION AND USE THEREOF AS FATTY ACID AMIDO HYDROLASE ENZYME INHIBITORS” (SANOFI-AVENTIS, priority 2004, published 2007).

Molecular target: T1, enzyme FAAH (Fatty Acid Amido Hydrolase) (Mus musculus, UniProt O08914)
T1 construct: The membrane homogenates are prepared at the time of use by homogenization of the tissues; from tissue; host or cells: mouse brain (minus the cerebellum), membrane homogenate
T1 sequence (O08914 1-579): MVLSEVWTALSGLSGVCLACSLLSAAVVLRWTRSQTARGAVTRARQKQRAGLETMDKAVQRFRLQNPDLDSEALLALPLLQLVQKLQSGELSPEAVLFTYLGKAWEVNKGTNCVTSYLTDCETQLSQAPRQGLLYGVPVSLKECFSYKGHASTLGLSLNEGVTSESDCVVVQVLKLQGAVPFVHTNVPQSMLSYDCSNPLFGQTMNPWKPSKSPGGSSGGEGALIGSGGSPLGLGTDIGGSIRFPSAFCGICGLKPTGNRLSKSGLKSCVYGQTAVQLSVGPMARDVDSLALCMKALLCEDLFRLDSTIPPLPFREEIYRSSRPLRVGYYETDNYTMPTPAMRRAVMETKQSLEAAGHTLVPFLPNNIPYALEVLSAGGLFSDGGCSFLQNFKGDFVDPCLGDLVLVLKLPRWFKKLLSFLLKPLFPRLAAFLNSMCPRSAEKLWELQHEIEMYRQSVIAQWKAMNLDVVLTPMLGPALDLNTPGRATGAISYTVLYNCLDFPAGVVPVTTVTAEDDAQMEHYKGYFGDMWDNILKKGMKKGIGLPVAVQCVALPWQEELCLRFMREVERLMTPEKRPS
Assay: radioenzymatic test of FAAH inhibition: hydrolysis of ((1-3H)ethanolamine)-anandamide by mouse brain membrane homogenates
Assay type: biochemical
Conditions: mouse brain membrane homogenate, 10 μM anandamide, 15 minutes at 25° C.; read-out: IC50 (concentration which inhibits the control enzymatic activity of FAAH by 50%)
Protocol: The compounds of the invention have formed the subject of pharmacological trials which make it possible to determine their inhibitory effect on the enzyme FAAH (Fatty Acid Amido Hydrolase).
Thus, mouse brains (minus the cerebellum) are removed and stored at −80° C. The membrane homogenates are prepared at the time of use by homogenization of the tissues with a Polytron in a 10 mM Tris-HCl buffer (pH 8.0) comprising 150 mM NaCl and 1 mM EDTA. The enzymatic reaction is subsequently carried out in 70 μl of buffer comprising bovine serum albumin free from fatty acids (1 mg/ml). The test compounds, at various concentrations, the ((1-^3H)ethanolamine)-anandamide (specific activity of 15-20 Ci/mmol), diluted to 10 μM with non-radiolabelled anandamide, and the membrane preparation (400 μg of frozen tissue per assay) are successively added. After 15 minutes at 25° C., the enzymatic reaction is halted by addition of 140 μl of chloroform/methanol (2:1). The mixture is stirred for 10 minutes and is then centrifuged at 3500 g for 15 minutes. An aliquot (30 μl) of the aqueous phase comprising the (1-^3H)ethanolamine is counted by liquid scintillation.

IC50 [nM]	SMILES
98	CNC(=O)COC(=O)N1CCC(O)(c2ccc(-c3ccc(Cl)c(Cl)c3)cc2)CC1 [Compound No. 40, 2-(Methylamino)-2-oxoethyl 4-(3′,4′-dichlorobiphenyl-4-yl)-4-hydroxypiperidine-1-carboxylate]
95	CCOc1ccc(-c2ccc(C3(O)CCN(C(=O)OCC(=O)NC)CC3)cc2)cc1 [compound 39, 2-(methylamino)-2-oxoethyl 4-(4′-ethoxybiphenyl-4-yl)-4-hydroxypiperidine-1-carboxylate]

Test system: male OF1 mice
Assay: test for analgesia: abdominal tractions induced by PBQ (phenylbenzoquinone) i.p.
Assay type: in vivo, mouse
Conditions: 3 mg/kg p.o., administered 60 minutes before PBQ
Protocol: The in vivo activity of the compounds of the invention was evaluated in a test for analgesia.
Thus, the intraperitoneal (i.p.) administration of PBQ (phenylbenzoquinone, 2 mg/kg in a 0.9% sodium chloride solution comprising 5% of ethanol) to male OF1 mice weighing 25 to 30 g causes abdominal tractions, on average 30 twisting or contracting motions during the period from 5 to 15 minutes after injection. The test compounds are administered, orally (p.o.) or intraperitoneally (i.p.) in suspension in 0.5% Tween 80, 60 minutes or 120 minutes before the administration of PBQ. Under these conditions, the most powerful compounds of the invention reduce by 35 to 70% the number of tractions induced by the PBQ, within a range of doses of between 1 and 30 mg/kg.

SMILES	reduction of the number of tractions induced by the PBQ [%]
CNC(=O)COC(=O)N1CCC(CCc2ccc(Cl)cc2)CC1 [compound 57, 2-(methylamino)-2-oxoethyl 4-[2-(4-chloro-phenyl)ethyl]piperidine-1-carboxylate]	37

Same assay, conditions: 3 mg/kg p.o., administered 120 minutes before PBQ

SMILES	reduction of the number of tractions induced by the PBQ [%]
CNC(=O)COC(=O)N1CCC(CCc2ccc(Cl)cc2)CC1 [compound 57, 2-(methylamino)-2-oxoethyl 4-[2-(4-chloro-phenyl)ethyl]piperidine-1-carboxylate]	74

Test system: not given
Assay: not given
Conditions: not given

melting point [°C]	SMILES
192 to 194	CNC(=O)COC(=O)N1CCC(n2cnc(-c3ccccc3)c2)CC1 [Compound No. 14, 2-(Methylamino)-2-oxoethyl 4-(4-phenyl-1H-imidazol-1-yl)piperidine-1-carboxylate]
57 to 60	CNC(=O)COC(=O)N1CCC(O)(c2ccc(Br)cc2)CC1 [Compound No. 32, 2-(Methylamino)-2-oxoethyl 4-(4-bromophenyl)-4-hydroxypiperidine-1-carboxylate]
156 to 158	CNC(=O)COC(=O)N1CCC(O)(c2ccc(-c3ccc(Cl)c(Cl)c3)cc2)CC1 [Compound No. 40, 2-(Methylamino)-2-oxoethyl 4-(3′,4′-dichlorobiphenyl-4-yl)-4-hydroxypiperidine-1-carboxylate]
150 to 152	CNC(=O)COC(=O)N1CCC(Cc2ccc3ccccc3c2)CC1 [Compound No. 43, 2-(Methylamino)-2-oxoethyl 4-(naphth-2-ylmethyl)piperidine-1-carboxylate]
126 to 128	CNC(=O)COC(=O)N1CCC(CCc2nccc3ccccc23)CC1 [Compound No. 74, 2-(Methylamino)-2-oxoethyl 4-(2-(isoquinolin-1-yl)ethyl)-1-piperidinecarboxylate]
118 to 120	CNC(=O)COC(=O)N1CCC(CCCc2ccc(Cl)cc2)CC1 [Compound No. 83, 2-(Methylamino)-2-oxoethyl 4-[3-(4-chlorophenyl)propyl]piperidine-1-carboxylate]
101 to 103	CNC(=O)COC(=O)N1CCC(CC#Cc2ccc(Cl)cc2)CC1 [Compound No. 107, 2-(Methylamino)-2-oxoethyl 4-[3-(4-chlorophenyl)prop-2-yn-1-yl]piperidine-1-carboxylate]
158 to 159	NC(=O)COC(=O)N1CCC(Cn2ccc3ccccc32)CC1 [compound 47, 2-amino-2-oxoethyl 4-(1H-indol-1-ylmethyl)piperidine-1-carboxylate]
